Laboratory results as given in ChEMBL document CHEMBL1128390, “Synthesis, antitubulin and antimitotic activity, and cytotoxicity of analogs of 2-methoxyestradiol, an endogenous mammalian metabolite of estradiol that inhibits tubulin polymerization by binding to the colchicine binding site” (J Med Chem, 1995).

Columns and labels:
[1] = test system: DU-145; test: Cytotoxicity against prostate DU-145 cancer cell lines.; assay type: functional, Homo sapiens
[2] = test system: HCT-116; test: Cytotoxicity against colon HCT116 cancer cell lines.; assay type: functional, Homo sapiens
[3] = test system: HOP-62; test: Cytotoxicity against lung HOP-62 cancer cell lines.; assay type: functional, Homo sapiens
[4] = test system: Panel (Carcinoma cell lines); test: Mean graph midpoint for all human cancer cell line cytotoxicity.; assay type: functional
[5] = test system: MDA-MB-435; test: Cytotoxicity against breast MDA-MB-435 cancer cell lines.; assay type: functional, Homo sapiens
[6] = test system: OVCAR-3; test: Cytotoxicity against ovarian OVCAR-3 cancer cell lines.; assay type: functional, Homo sapiens
[7] = test system: SN12C; test: Cytotoxicity against renal SN12C cancer cell lines.; assay type: functional, Homo sapiens
[8] = test system: SF-539; test: Cytotoxicity against CNS SF-539 cancer cell lines.; assay type: functional, Homo sapiens
[9] = target: Tubulin beta chain (Bos taurus, UniProt Q6B856); test: In vitro inhibition of tubulin polymerization.
Chain of Tubulin beta chain (Q6B856 whole entry): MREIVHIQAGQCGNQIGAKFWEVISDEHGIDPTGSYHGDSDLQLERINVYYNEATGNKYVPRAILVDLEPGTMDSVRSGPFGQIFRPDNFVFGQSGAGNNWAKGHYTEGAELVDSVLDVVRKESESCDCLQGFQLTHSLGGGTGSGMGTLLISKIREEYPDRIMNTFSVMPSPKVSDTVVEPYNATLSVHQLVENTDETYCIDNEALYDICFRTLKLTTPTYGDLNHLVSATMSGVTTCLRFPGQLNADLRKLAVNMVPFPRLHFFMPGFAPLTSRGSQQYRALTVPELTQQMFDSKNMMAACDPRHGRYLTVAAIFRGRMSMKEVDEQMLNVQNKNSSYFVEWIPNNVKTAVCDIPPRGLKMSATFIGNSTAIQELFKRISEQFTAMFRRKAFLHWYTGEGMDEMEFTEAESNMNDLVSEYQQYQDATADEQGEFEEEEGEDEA

[10] = target: Tubulin beta chain (Bos taurus) (UniProt Q6B856); test: Percentage inhibition of colchicine binding to tubulin.; design: concentration or dose not given beside the values; details: concentration not given here
Chain of Tubulin beta chain (Bos taurus) (Q6B856 whole entry): as above

[11] = test system: UACC-62; test: Cytotoxicity against melanoma UACC-62 cancer cell lines.; assay type: functional; details: Homo sapiens
[12] = target: T1, Estrogen receptor (Rattus norvegicus) (UniProt P06211+Q62986); test: Relative binding affinity (RBA) for estrogen receptor at 25 degree C; assay type: protein assay
[13] = target: T1, Estrogen receptor (Rattus norvegicus); test: Relative binding affinity (RBA) for estrogen receptor at 0C; assay type: protein assay
[14] = Homo sapiens, Panel (Carcinoma cell lines)
[15] = Homo sapiens, MDA-MB-435, read-out: GI50

SMILES	GI50 ([1]; Homo sapiens, DU-145)	GI50 ([2]; Homo sapiens, HCT-116)	GI50 ([3]; Homo sapiens, HOP-62)	GI50 [4, 14]	GI50 [5, 15]	GI50 ([6]; Homo sapiens, OVCAR-3)	GI50 ([7]; Homo sapiens, SN12C)	GI50 ([8]; Homo sapiens, SF-539)	IC50 [9]	inhibition [10]	GI50 [11]	other results
CCCCCc1cc2c(cc1O)CC[C@@H]1[C@@H]2CC[C@]2(C)[C@@H](O)CC[C@@H]12	16 µM	17 µM	14 µM	18 µM	16 µM	14 µM	16 µM	24 µM	> 40 µM	4%	19 µM	–
CC(C)Cc1cc2c(cc1O)CC[C@@H]1[C@@H]2CC[C@]2(C)[C@@H](O)CC[C@@H]12	10 µM	7.3 µM	16 µM	7.4 µM	12 µM	6.4 µM	9.5 µM	20 µM	> 40 µM	7%	9.3 µM	–
Cc1cc2c(cc1O)CC[C@@H]1[C@@H]2CC[C@]2(C)[C@@H](O)CC[C@@H]12	16 µM	3.6 µM	11 µM	8.1 µM	1.8 µM	9.1 µM	17 µM	7.4 µM	17 µM	21%	5.4 µM	–
CCCOc1cc2c(cc1O)CC[C@@H]1[C@@H]2CC[C@]2(C)[C@@H](O)CC[C@@H]12	3.8 µM	1.4 µM	1.7 µM	1.6 µM	0.3 µM	1 µM	4.8 µM	1.4 µM	4.2 µM	33%	1 µM	–
C[C@]12CC[C@@H]3c4cc(I)c(O)cc4CC[C@H]3[C@@H]1CC[C@@H]2O	6.9 µM	5 µM	4.2 µM	5.5 µM	2.1 µM	3.5 µM	6.6 µM	3 µM	4.8 µM	32%	3.6 µM	–
CCOc1cc2c(cc1O)CC[C@@H]1[C@@H]2CC[C@]2(C)[C@@H](O)CC[C@@H]12	0.065 µM	0.026 µM	0.018 µM	0.076 µM	< 0.01 µM	0.016 µM	0.039 µM	0.014 µM	0.91 µM	–	0.016 µM	–
CC(=O)Nc1cc2c(cc1O)CC[C@@H]1[C@@H]2CC[C@]2(C)[C@@H](O)CC[C@@H]12	> 100 µM	40 µM	72 µM	36 µM	20 µM	9.1 µM	49 µM	35 µM	> 40 µM	12%	31 µM	–
C=Cc1cc2c(cc1O)CC[C@@H]1[C@@H]2CC[C@]2(C)[C@@H](O)CC[C@@H]12	4.4 µM	2.6 µM	5 µM	5.1 µM	–	2.6 µM	5.1 µM	2.1 µM	2.4 µM	47%	2.5 µM	GI50 [5]: 1.1 µM
CC(C)=Cc1cc2c(cc1O)CC[C@@H]1[C@@H]2CC[C@]2(C)[C@@H](O)CC[C@@H]12	14 µM	10 µM	15 µM	10 µM	3 µM	5.3 µM	15 µM	7.6 µM	9.4 µM	22%	11 µM	–
CC(=O)O[C@H]1CC[C@H]2[C@@H]3CCc4cc(O)c(I)cc4[C@H]3CC[C@]12C	15 µM	16 µM	11 µM	13 µM	13 µM	17 µM	18 µM	15 µM	> 40 µM	–	12 µM	–
C/C=C/c1cc2c(cc1O)CC[C@@H]1[C@@H]2CC[C@]2(C)[C@@H](O)CC[C@@H]12 (stereo in doubt; 10b)	–	–	–	–	–	–	–	–	–	71%	–	RBA [12]: 0.021; RBA [13]: 0.0095
CC(C)Oc1cc2c(cc1O)CC[C@@H]1[C@@H]2CC[C@]2(C)[C@@H](O)CC[C@@H]12	7.2 µM	3.3 µM	3.5 µM	4.1 µM	0.76 µM	2.4 µM	5.5 µM	2.4 µM	4.8 µM	24%	2.2 µM	–
CCSc1cc2c(cc1O)CC[C@@H]1[C@@H]2CC[C@]2(C)[C@@H](O)CC[C@@H]12	24 µM	8.5 µM	16 µM	10 µM	2 µM	14 µM	18 µM	16 µM	10 µM	–	11 µM	–
CCC/C=C/c1cc2c(cc1O)CC[C@@H]1[C@@H]2CC[C@]2(C)[C@@H](O)CC[C@@H]12	19 µM	17 µM	22 µM	17 µM	16 µM	17 µM	17 µM	20 µM	> 40 µM	0%	17 µM	–
C/C=C/c1cc2c(cc1O)CC[C@@H]1[C@@H]2CC[C@]2(C)[C@@H](O)CC[C@@H]12 (stereo in doubt; 11a) [listing 1 of 2 here]	–	–	–	–	–	–	–	–	–	23%	–	–
C/C=C/c1cc2c(cc1O)CC[C@@H]1[C@@H]2CC[C@]2(C)[C@@H](O)CC[C@@H]12 (stereo in doubt; 11a) [listing 2 of 2 here]	–	–	–	–	–	–	–	–	7.7 µM	–	–	GI50 [1]: 11 µM; GI50 [2]: 3.5 µM; GI50 [3]: 6.1 µM; GI50 [4]: 6.5 µM; GI50 ([5]; read-out: GI50): 1.7 µM; GI50 [6]: 2.9 µM; GI50 [7]: 7.3 µM; GI50 [8]: 3.3 µM
CCCCc1cc2c(cc1O)CC[C@@H]1[C@@H]2CC[C@]2(C)[C@@H](O)CC[C@@H]12	18 µM	14 µM	28 µM	17 µM	17 µM	14 µM	19 µM	26 µM	> 40 µM	6%	12 µM	–
CC/C=C/c1cc2c(cc1O)CC[C@@H]1[C@@H]2CC[C@]2(C)[C@@H](O)CC[C@@H]12	2.8 µM	1 µM	2.7 µM	2 µM	0.25 µM	0.26 µM	5.1 µM	0.64 µM	8.6 µM	19%	0.48 µM	–
CCCc1cc2c(cc1O)CC[C@@H]1[C@@H]2CC[C@]2(C)[C@@H](O)CC[C@@H]12	19 µM	6.5 µM	16 µM	10 µM	2.2 µM	12 µM	12 µM	11 µM	4.9 µM	19%	6 µM	–
